pIC50: −log10 of the molar value.

Test [1] relates to Human cervical cancer cells (HeLa S3). The test can be described thus: Effect by combined use of drugs in cells (docetaxel), WST-8 method. Type of test: cell-based. How it is done:
Fetal calf serum (FCS) was purchased from Moregate Biotech, DMEM medium from Invitrogen Corp., docetaxel (tradename: Taxere) from Sigma-Aldrich, Inc., and WST-8 from Kishida Chemical Co., Ltd.
(§1) Human cervical cancer cells (HeLa S3) were obtained from the American Type Culture Collection (ATCC).
Cells were suspended in a DMEM medium containing 10% FCS, and the cell suspension was dispensed to two 96-well plastic plates at a rate of 750 cells/100 microliters per well. The plates were incubated overnight in 5% CO2-95% air at 37° C. A drug was subjected to graded dilution in dimethylsulfoxide and further diluted with DMSO or with a DMEM medium containing 10% FCS and also containing 0.6 nM docetaxel. Then, the dilutions were each dispensed to one of the plates on which cells had been disseminated, at a rate of 100 microliters per well. The final concentration of docetaxel at this stage was 0.3 nM. Also, the concentrations in the case of sole administration of the compound according to the invention were 0.003, 0.01, 0.03, 0.1, 0.3, 1, 3 and 10 μM. The plates were incubated for further three days in 5% CO2-95% air at 37° C. Cell growth after incubation was measured by the WST-8 method (H. Tominaga, et al., Anal. Commun., 36, 47-50 (1999)). Here, the WST-8 method refers to a method in which 20 microliters of a WST-8 reagent solution is added to each well, incubation is conducted at 37° C. for 60 minutes, the plate is stirred, and the amount of formazan produced is measured by a colorimetric method to determine the inhibitory rate of the drug. The growth inhibitory effects of docetaxel and of the compound according to the invention were determined, with the value obtained in sole treatment of DMSO being defined as 0%.
In general terms: Formazan colour is commonly taken as a measure of viable cells.

For test [2] the test system is unchanged. Kind of test: Cell growth inhibitory effect, WST-8 method. It counts as cell-based. The settings on record: 72 h, HeLa S3, three days incubation, read-out: Cell growth inhibitory effect (HeLaS3) (IC50). How it is done: Fetal calf serum (FCS) was purchased from Moregate Biotech, and DMEM medium was purchased from Invitrogen Corp. WST-8 was purchased from Kishida Chemical Co., Ltd.
as §1
Cells were suspended in a DMEM medium containing 10% FCS, and the cell suspension was dispensed to a 96-well plastic plate at a rate of 750 cells/100 microliters per well. The plate was incubated overnight in 5% CO2-95% air at 37° C. A drug was subjected to graded dilution in dimethylsulfoxide and further diluted with a DMEM medium containing 10% FCS. Then, the dilution was dispensed to the plate on which cells had been disseminated, at a rate of 100 microliters per well.

Test [3] concerns the target T1, His-tagged human Aurora A (Homo sapiens, UniProt O14965).
T1 construct: made in house; host or cells: Escherichia coli BL21-CodonPlus(DE3)-RIL
T1 sequence (O14965 1-403): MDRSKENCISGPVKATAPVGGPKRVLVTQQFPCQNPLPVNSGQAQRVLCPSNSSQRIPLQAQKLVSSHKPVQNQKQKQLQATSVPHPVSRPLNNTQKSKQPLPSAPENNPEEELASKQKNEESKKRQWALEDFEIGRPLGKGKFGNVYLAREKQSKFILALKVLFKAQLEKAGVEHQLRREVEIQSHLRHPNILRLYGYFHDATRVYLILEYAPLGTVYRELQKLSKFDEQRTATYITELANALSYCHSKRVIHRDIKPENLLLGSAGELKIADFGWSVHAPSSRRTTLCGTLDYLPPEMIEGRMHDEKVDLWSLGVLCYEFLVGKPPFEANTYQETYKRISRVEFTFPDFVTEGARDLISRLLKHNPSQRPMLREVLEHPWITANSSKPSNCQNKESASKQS
The test can be described thus: Aurora A inhibitory activity (IMAP fluorescence polarization). Type of test: biochemical. The settings on record: 20 μM ATP, 30° C., 120 minutes. The text has this:
cDNA of N-terminal His-tagged human Aurora A was integrated into an expression vector, which was then highly expressed in Escherichia coli BL21-CodonPlus(DE3)-RIL cells. The Escherichia coli was harvested and lysed, and then the His-tagged human Aurora A protein was applied onto a nickel chelate column and eluted from the column with imidazole. The active fractions were desalted with a desalting column to give a purified enzyme.
Concretely, the phosphorylation reaction and the detection were carried out as follows:
The phosphorylation reaction was conducted using 384 well plate, and the reaction volume was 10 μl/well. The reaction buffer is comprised of 50 mM Tris-chloride buffer (pH 7.4), 15 mM magnesium acetate, and 0.2 mM ethylenediamine-N,N,N′,N′-tetraacetic acid (EDTA). […]
Thereafter, in order to terminate and detect the reaction, 30 μl of the IMAP (registered trademark) binding reagent (IMAP Progressive Binding Reagent, R7284) that had been diluted (1:400) in the 1× IMAP binding buffer A (IMAP Progressive Binding Buffer A, 5× stock, R7282) was added to each well. The solution stood still for 60 minutes in the dark, and then fluorescence polarization was measured using a high-end microplate reader (excitation wavelength: 485 nm; emission wavelength: 520 nm). […]
(In fluorescence polarisation assays a small probe gives low polarisation when free and higher when bound to something large.)

Test [4] addresses T2, GST-tagged human Aurora B(AurB)/His-tagged human INCENP complex proteins (Homo sapiens, UniProt Q96GD4).
T2 construct: GST; purchased Cama Biosciences, Inc. (so in the source)
Kind of test: Aurora B inhibitory activity (Method A, IMAP kit). The settings on record: 40 μM ATP, 25° C., 45 minutes. Type of test: biochemical. How it is done:
Using the same, the phosphorylation reaction was conducted in accordance with a partially revised protocol attached to the kit, and then the phosphorylation of the substrate was detected using the IMAP technology.
For the phosphorylation reaction, 384 well plate was used, and the reaction volume was 10 μl/well. The composition of the reaction buffer (assay buffer) is comprised of 20 mM of HEPES buffer (pH 7.4), 0.01% Tween-20, and 2 mM of dithiothreitol (DTT). Thereto, AurB/INCENP complex protein, 100 nM of the substrate, and 40 μM of ATP, and 1 mM of magnesium salt were added, and then the reaction was conducted at 25° C. for 45 minutes. Thereafter, in order to terminate and detect the reaction, 30 μl of the IMAP (registered trademark) binding reagent (IMAP Progressive Binding Reagent, R7284) that had been diluted (1:400) in the 1× IMAP binding buffer A (IMAP Progressive Binding Buffer A, 5× stock, R7282) was added to each well.
The compound to be tested was added to the reaction system such that a dilution series of the compound in DMSO was prepared, and then 0.5 μL of this solution was added for the testing to each well. Each control well was provided by adding 0.5 μL of DMSO to the well in place of the DMSO solution containing the compound to be tested.

T2 sequence (Q96GD4 whole entry): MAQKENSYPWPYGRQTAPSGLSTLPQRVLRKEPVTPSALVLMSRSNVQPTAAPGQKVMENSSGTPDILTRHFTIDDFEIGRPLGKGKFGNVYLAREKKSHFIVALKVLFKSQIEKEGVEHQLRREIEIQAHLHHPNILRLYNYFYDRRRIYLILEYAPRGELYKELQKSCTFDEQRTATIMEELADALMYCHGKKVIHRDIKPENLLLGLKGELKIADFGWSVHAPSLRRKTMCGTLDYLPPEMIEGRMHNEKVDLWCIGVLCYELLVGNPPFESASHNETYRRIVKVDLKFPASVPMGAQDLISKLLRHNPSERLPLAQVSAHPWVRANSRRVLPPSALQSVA
T2 sequence (Q9NQS7 803-916 partner limits assumed): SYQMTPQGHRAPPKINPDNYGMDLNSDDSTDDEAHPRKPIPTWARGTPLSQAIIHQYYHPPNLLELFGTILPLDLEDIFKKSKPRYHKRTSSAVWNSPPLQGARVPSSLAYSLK

In general, pIC50 refers to the negative decadic logarithm of the IC50, by convention in mol/L. As for `O=c1[nH]nc([C@]2(Cc3cncc(Nc4cc[nH]n4)n3)CC[C@@H](Oc3cccc(Cl)c3F)CC2)o1` [Example 29, 5-(trans-4-(3-chloro-2-fluorophenoxy)-1-((6-(1H-pyrazol-3-ylamino)pyrazin-2-yl)methyl)cyclohexyl)-1,3,4-oxadiazol-2(3H)-one], the inhibition at 0.1 µM in test [1] (Homo sapiens, HeLa S3, compound 0.1 μM alone, read-out: Cell growth inhibitory effect by sole administration of the compound of Example (%)) came to 11.3%. Besides, the inhibition at 0.3 µM in test [1] (Homo sapiens, HeLa S3, compound 0.3 μM alone, read-out: Cell growth inhibitory effect by sole administration of the compound of Example (%)) amounted to 39.9%. Also, the “Cell growth inhibitory effect by combined administration of docetaxel and the compound of Example (%)” value in test [1] (compound 0.1 μM + docetaxel 0.3 nM) was 79.0%; in test [1] (compound 0.3 μM + docetaxel 0.3 nM), 92.9%. Further, the pIC50 in test [2] is 6.17; in test [3] it was 9.72; in test [4] it was 6.17.
As to `Fc1c(O[C@H]2CC[C@](Cc3cccc(Nc4cc[nH]n4)n3)(c3nncs3)CC2)cccc1C(F)(F)F` [Example 27, 6-((trans-4-(2-fluoro-3-(trifluoromethyl)phenoxy)-1-(1,3,4-thiadiazol-2-yl)cyclohexyl)methyl)-N-1H-pyrazol-3-ylpyridin-2-amine], the pIC50 is 8.62 in test [3] and 6.66 in test [4].

Source of the values: patent US7915263B2, “Aminopyridine derivatives having aurora A selective inhibitory action” (Banyu Pharmaceutical Co., Ltd., priority 2006, dated 2011).
